In ChEMBL document CHEMBL1821720, “Discovery and hit-to-lead optimization of novel allosteric glucokinase activators” (Bioorg Med Chem Lett, 2011) one finds Ratio data, which are given here for 17 molecules.

The first test addresses T1, Hexokinase-4 (Homo sapiens) (UniProt P35557).
T1 sequence (whole entry): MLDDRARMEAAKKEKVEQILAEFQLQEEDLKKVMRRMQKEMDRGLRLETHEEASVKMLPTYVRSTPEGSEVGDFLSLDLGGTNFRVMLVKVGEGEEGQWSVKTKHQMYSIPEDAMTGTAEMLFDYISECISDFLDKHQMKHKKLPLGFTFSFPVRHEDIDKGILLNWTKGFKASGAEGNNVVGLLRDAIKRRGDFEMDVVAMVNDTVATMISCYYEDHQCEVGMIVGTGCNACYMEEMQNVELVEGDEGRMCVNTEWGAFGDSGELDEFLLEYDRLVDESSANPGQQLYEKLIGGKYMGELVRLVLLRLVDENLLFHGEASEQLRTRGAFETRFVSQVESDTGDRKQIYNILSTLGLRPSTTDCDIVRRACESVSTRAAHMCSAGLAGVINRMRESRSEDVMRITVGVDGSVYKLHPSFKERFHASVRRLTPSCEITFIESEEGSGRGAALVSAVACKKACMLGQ
The experiment in a line: Activation of human recombinant glucokinase expressed in Escherichia coli coexpressing G6PDH at 10 uM using 20 mM glucose measured as ratio of enzyme activation in treated to untreated control by G6PDH coupled continuous spectrophotometric assay.
Turning to `Cc1oc(-c2ccccc2S(C)(=O)=O)cc1C(=O)Nc1nc2c(s1)CCC2`, the Ratio was determined as 1.72.

Take `Cc1oc(-c2cccc(O)c2)cc1C(=O)Nc1nc2c(s1)CCC2`: the Ratio was 0.9.

As for `Cc1oc(-c2ccccc2C#N)cc1C(=O)Nc1nc2c(s1)CCC2`, the Ratio stood at 1.1.

For the molecule `CC(=O)Oc1cccc(-c2cc(C(=O)Nc3nc4c(s3)CCC4)c(C)o2)c1`, the Ratio was 0.92.

For the molecule `CC(=O)c1ccccc1-c1cc(C(=O)Nc2nc3c(s2)CCC3)cs1`, the Ratio amounted to 1.45.

For `COc1ccc(-c2cc(C(=O)Nc3nc4c(s3)CCC4)c(C)o2)cc1OC`, the Ratio is 0.83.

As for `CC(=O)NCc1cc(C(=O)Nc2nc3c(s2)CCC3)c(C)o1`, the Ratio came to 1.11.

Turning to `Cc1cc(C(=O)Nc2nc3c(s2)C2CCC3C2)c(C)o1` (stereo not drawn), the Ratio amounted to 1.02.

Consider `CCc1oc(-c2ccccc2C(C)=O)cc1C(=O)Nc1nc2c(s1)CCC2`, for which the Ratio amounted to 1.41.

Turning to `Cc1oc(-c2ccccc2O)cc1C(=O)Nc1nc2c(s1)CCC2`, the Ratio came to 0.87.

As to `Nc1ccc2sc(NC(=O)c3ccccc3)nc2c1`, the Ratio came to 1.02.

For `CC(=O)c1ccccc1-c1cc(C(=O)Nc2nc3c(s2)CCC3)c(C)o1`, the Ratio came to 1.63.

`Cc1cc(C(=O)Nc2nc3c(s2)CCCCC3)c(C)o1`: the Ratio amounted to 1.05.

`O=C(Nc1nc2c(s1)CCCC2)c1cccnc1`: the Ratio was 0.97.

As for `Cc1cc(C(=O)Nc2nc3c(o2)CCCC3)c(C)o1`, the Ratio was determined as 0.92.

With `O=C(Nc1nc2c(s1)CCCC2)c1ccncc1`, the Ratio was 0.93.

As for `Cc1oc(-c2cccnc2)cc1C(=O)Nc1nc2c(s1)CCC2`, the Ratio was 1.08.

For another test, the target named is T1, Hexokinase-4 (Homo sapiens). The experiment in a line: Activation of human recombinant glucokinase expressed in Escherichia coli coexpressing G6PDH at 10 uM using 20 mM glucose measured as ratio of enzyme activation in compound treated to Ro-28-1675 by G6PDH coupled continuous spectrophotometric assay.
In the case of `Cc1oc(-c2ccccc2S(C)(=O)=O)cc1C(=O)Nc1nc2c(s1)CCC2`, the Ratio was determined as 0.47.

On to `Cc1oc(-c2cccc(O)c2)cc1C(=O)Nc1nc2c(s1)CCC2`, for which the Ratio was -0.069.

As for `Cc1oc(-c2ccccc2C#N)cc1C(=O)Nc1nc2c(s1)CCC2`, the Ratio worked out at 0.064.

In the case of `CC(=O)Oc1cccc(-c2cc(C(=O)Nc3nc4c(s3)CCC4)c(C)o2)c1`, the Ratio was -0.047.

Regarding `CC(=O)c1ccccc1-c1cc(C(=O)Nc2nc3c(s2)CCC3)cs1`, the Ratio came out at 0.296.

As to `COc1ccc(-c2cc(C(=O)Nc3nc4c(s3)CCC4)c(C)o2)cc1OC`, the Ratio is -0.099.

As for `CC(=O)NCc1cc(C(=O)Nc2nc3c(s2)CCC3)c(C)o1`, the Ratio was 0.081.

For the molecule `Cc1cc(C(=O)Nc2nc3c(s2)C2CCC3C2)c(C)o1` (stereo not drawn), the Ratio worked out at 0.012.

Consider `CCc1oc(-c2ccccc2C(C)=O)cc1C(=O)Nc1nc2c(s1)CCC2`, for which the Ratio turned out to be 0.361.

For the molecule `Cc1oc(-c2ccccc2O)cc1C(=O)Nc1nc2c(s1)CCC2`, the Ratio was -0.08.

As to `Nc1ccc2sc(NC(=O)c3ccccc3)nc2c1`, the Ratio is -0.051.

Regarding `CC(=O)c1ccccc1-c1cc(C(=O)Nc2nc3c(s2)CCC3)c(C)o1`, the Ratio was found to be 0.384.

`Cc1cc(C(=O)Nc2nc3c(s2)CCCCC3)c(C)o1`: the Ratio came out at 0.028.

As for `O=C(Nc1nc2c(s1)CCCC2)c1cccnc1`, the Ratio is -0.015.

Take `Cc1cc(C(=O)Nc2nc3c(o2)CCCC3)c(C)o1`: the Ratio is -0.048.

Turning to `O=C(Nc1nc2c(s1)CCCC2)c1ccncc1`, the Ratio is -0.033.

For `Cc1oc(-c2cccnc2)cc1C(=O)Nc1nc2c(s1)CCC2`, the Ratio came out at 0.053.

A further test shares this target. The experiment in a line: Activation of human recombinant glucokinase expressed in Escherichia coli coexpressing G6PDH at 10 uM using 5 mM glucose measured as ratio of enzyme activation in compound treated to Ro-28-1675 by G6PDH coupled continuous spectrophotometric assay.
Consider `Cc1oc(-c2ccccc2S(C)(=O)=O)cc1C(=O)Nc1nc2c(s1)CCC2`, for which the Ratio turned out to be 0.504.

For `Cc1oc(-c2cccc(O)c2)cc1C(=O)Nc1nc2c(s1)CCC2`, the Ratio is -0.017.

Turning to `Cc1oc(-c2ccccc2C#N)cc1C(=O)Nc1nc2c(s1)CCC2`, the Ratio was determined as 0.067.

As to `CC(=O)Oc1cccc(-c2cc(C(=O)Nc3nc4c(s3)CCC4)c(C)o2)c1`, the Ratio is -0.019.

Regarding `CC(=O)c1ccccc1-c1cc(C(=O)Nc2nc3c(s2)CCC3)cs1`, the Ratio was 0.274.

Regarding `COc1ccc(-c2cc(C(=O)Nc3nc4c(s3)CCC4)c(C)o2)cc1OC`, the Ratio is -0.024.

For `CC(=O)NCc1cc(C(=O)Nc2nc3c(s2)CCC3)c(C)o1`, the Ratio is 0.105.

`Cc1cc(C(=O)Nc2nc3c(s2)C2CCC3C2)c(C)o1` (stereo not drawn): the Ratio was 0.059.

As to `CCc1oc(-c2ccccc2C(C)=O)cc1C(=O)Nc1nc2c(s1)CCC2`, the Ratio amounted to 0.193.

On to `Cc1oc(-c2ccccc2O)cc1C(=O)Nc1nc2c(s1)CCC2`, for which the Ratio is -0.012.

For `Nc1ccc2sc(NC(=O)c3ccccc3)nc2c1`, the Ratio was found to be 0.087.

Consider `CC(=O)c1ccccc1-c1cc(C(=O)Nc2nc3c(s2)CCC3)c(C)o1`, for which the Ratio was determined as 0.329.

As to `Cc1cc(C(=O)Nc2nc3c(s2)CCCCC3)c(C)o1`, the Ratio is 0.127.

With `O=C(Nc1nc2c(s1)CCCC2)c1cccnc1`, the Ratio was found to be 0.012.

Take `Cc1cc(C(=O)Nc2nc3c(o2)CCCC3)c(C)o1`: the Ratio was -0.025.

As for `O=C(Nc1nc2c(s1)CCCC2)c1ccncc1`, the Ratio was 0.002.

On to `Cc1oc(-c2cccnc2)cc1C(=O)Nc1nc2c(s1)CCC2`, for which the Ratio turned out to be 0.021.

The target is the same in the next test. The experiment in a line: Activation of human recombinant glucokinase expressed in Escherichia coli coexpressing G6PDH at 10 uM using 5 mM glucose measured as ratio of enzyme activation in treated to untreated control by G6PDH coupled continuous spectrophotometric assay.
Consider `Cc1oc(-c2ccccc2S(C)(=O)=O)cc1C(=O)Nc1nc2c(s1)CCC2`, for which the Ratio is 2.81.

For the molecule `Cc1oc(-c2cccc(O)c2)cc1C(=O)Nc1nc2c(s1)CCC2`, the Ratio came out at 0.94.

In the case of `Cc1oc(-c2ccccc2C#N)cc1C(=O)Nc1nc2c(s1)CCC2`, the Ratio came to 1.25.

Consider `CC(=O)Oc1cccc(-c2cc(C(=O)Nc3nc4c(s3)CCC4)c(C)o2)c1`, for which the Ratio amounted to 0.94.

In the case of `CC(=O)c1ccccc1-c1cc(C(=O)Nc2nc3c(s2)CCC3)cs1`, the Ratio was 2.02.

On to `COc1ccc(-c2cc(C(=O)Nc3nc4c(s3)CCC4)c(C)o2)cc1OC`, for which the Ratio amounted to 0.9.

Take `CC(=O)NCc1cc(C(=O)Nc2nc3c(s2)CCC3)c(C)o1`: the Ratio came to 1.4.

Turning to `Cc1cc(C(=O)Nc2nc3c(s2)C2CCC3C2)c(C)o1` (stereo not drawn), the Ratio was 1.25.

Regarding `CCc1oc(-c2ccccc2C(C)=O)cc1C(=O)Nc1nc2c(s1)CCC2`, the Ratio is 1.64.

In the case of `Cc1oc(-c2ccccc2O)cc1C(=O)Nc1nc2c(s1)CCC2`, the Ratio was determined as 0.95.

With `Nc1ccc2sc(NC(=O)c3ccccc3)nc2c1`, the Ratio was 1.6.

`CC(=O)c1ccccc1-c1cc(C(=O)Nc2nc3c(s2)CCC3)c(C)o1`: the Ratio came to 2.43.

In the case of `Cc1cc(C(=O)Nc2nc3c(s2)CCCCC3)c(C)o1`, the Ratio worked out at 1.53.

With `O=C(Nc1nc2c(s1)CCCC2)c1cccnc1`, the Ratio came to 1.06.

Consider `Cc1cc(C(=O)Nc2nc3c(o2)CCCC3)c(C)o1`, for which the Ratio was found to be 0.9.

Regarding `O=C(Nc1nc2c(s1)CCCC2)c1ccncc1`, the Ratio was 1.01.

Turning to `Cc1oc(-c2cccnc2)cc1C(=O)Nc1nc2c(s1)CCC2`, the Ratio came out at 1.09.
